This note sets out measurements from ChEMBL document CHEMBL5154664, “Imidazolylacetophenone oxime-based multifunctional neuroprotective agents: Discovery and structure-activity relationships” (Eur J Med Chem, 2022).

≈ marks a conversion by molar mass, not a printed value. Calls of active or inactive are those of the source. No cut-off for these calls is given here.

Data set [1] relates to BV-2. Description: Antiinflammatory activity in mouse BV-2 cells assessed as […] LPS-induced TNFalpha production at 1 to 10 uM and measured after 24 hrs by ELISA. The settings on record: dose 1-10 µM, DDE = dose-dependent effect. The format is functional, cell-based. A general note: In an ELISA, binding on a coated surface is turned into a signal by an enzyme label.

Data set [2] can be described thus: Cytotoxicity against LPS induced mouse BV-2 cells assessed as inhibition in cell viability at 20 uM measured by MTT assay. The following applies: BV-2 cells. For orientation: Tetrazolium assays rely on reduction of a dye to a coloured formazan, in cell work by metabolically active cells.
A short description of data set [3]: Metal chelating activity assessed as Cu2+-compound complex formation by measuring maximum absorption wavelength shift at 25 uM incubated for 30 mins by UV-Visible spectrophotometry.
The nature of data set [4]: Permeability of compound by PAMPA-BBB assay. The format is ADME. The following applies: read-out: permeability. In general terms: The PAMPA barrier holds no transporters, so it reflects passive diffusion.
Data set [5] has as its target Prostaglandin G/H synthase 2 (Homo sapiens) (UniProt P35354). Description: Inhibition of human COX2 at 40 uM by microplate reader assay.
Data set [6] relates to BV-2. Description: Antiinflammatory activity in mouse BV-2 cells assessed as reduction in LPS-induced iNOS expression at 0.5 uM by Western blot analysis relative to control. The format is functional, cell-based.
The nature of data set [7]: Antioxidant activity assessed as DPPH radical scavenging activity at 20 uM incubated for 30 mins under dark condition by microplate reader based assay. The format is functional.
Data set [8] deals with BV-2. Description: Antiinflammatory activity in mouse BV-2 cells assessed as increase in LPS-induced Arg1 level at 10 uM by ELISA. The format is functional, cell-based.
Data set [9] has as its system BV-2. Description: Antiinflammatory activity in mouse BV-2 cells assessed as reduction in LPS-induced COX-2 expression at 0.1 to 5 uM by Western blot analysis relative to control. The following applies: dose 0.1-5 µM, DDE = dose-dependent effect. The format is functional, cell-based.
Data set [10] is described as follows: Metal chelating activity assessed as Cu2+-compound complex formation at compound:Cu2+ molar ratio of 1:1 to 1:4 at 25 uM incubated for 30 mins by UV-visible spectrophotometry.
For data set [11], the target named is Acetylcholinesterase (Electrophorus electricus) (UniProt O42275). Nature of the data set: Inhibition of electric eel AChE at 20 uM using acetylthiocholine iodide as substrate preincubated with enzyme for 20 mins followed by substrate addition and measured after 45 mins by Ellman's method. The settings on record: time 65.0 min.
For data set [12], the system named is PC-12. Description: Neuroprotective activity against H2O2-induced neuronal death in rat PC12 cells assessed as increase in cell viability at 10 uM measured after 24 hrs by MTT assay relative to control. The format is functional.
Data set [13] in a line: Metal chelating activity assessed as compound Mg2+ complex formation by measuring maximum absorption wavelength shift at 25 uM incubated for 30 mins by UV-visible spectrophotometry.
The nature of data set [14]: Metal chelating activity assessed as compound Ca2+ complex formation by measuring maximum absorption wavelength shift at 25 uM incubated for 30 mins by UV-visible spectrophotometry.
Data set [15] concerns BV-2. Description: Antiinflammatory activity in mouse BV-2 cells assessed as reduction in LPS-induced COX-2 expression at 0.5 uM by Western blot analysis relative to control. The format is functional, cell-based.
Data set [16] has as its system PC-12. Nature of the data set: Anti-ferroptotic activity against RSL-3 induced ferroptosis in rat PC12 cells assessed as increase in cell viability at 10 uM measured after 24 hrs by MTT assay relative to control. The format is functional.
The target in a further data set is Acetylcholinesterase (Electrophorus electricus, UniProt O42275). Description: Mixed type inhibition of electric eel AChE by reciprocal Lineweaver-Burk plot analysis.
Data set [17] deals with BV-2. Nature of the data set: Antiinflammatory activity in mouse BV-2 cells assessed as reduction in LPS-induced iNOS expression at 0.1 to 5 uM by Western blot analysis relative to control. The format is functional, cell-based. The following applies: dose 0.1-5 µM, DDE = dose-dependent effect.
Data set [18] in a line: Metal chelating activity assessed as compound Zn2+ complex formation by measuring maximum absorption wavelength shift at 25 uM incubated for 30 mins by UV-visible spectrophotometry.
Data set [19] is described as follows: Solubility of the compound by UV-spectrometry. The format is physicochemical.
Data set [20] in a line: Cytotoxicity against rat PC12 cells assessed as cell viability at 1 to 10 uM measured after 24 hrs by MTT assay relative to control. The following applies: dose 1-10 µM, read-out: Activity. The format is toxicity, cell-based, PC-12.
Data set [21] is described as follows: Metal chelating activity assessed as compound Fe2+ complex formation by measuring maximum absorption wavelength shift at 25 uM incubated for 30 mins by UV-visible spectrophotometry.
Data set [22] has as its system BV-2. Description: Antiinflammatory activity in mouse BV-2 cells assessed as suppression of LPS-induced IL-1beta secretion at 10 uM and measured after 24 hrs by ELISA. The format is functional, cell-based.
Data set [23] is described as follows: Inhibition of LPS induced NO production in mouse BV-2 cells by Griess reagent based analysis. The format is functional, cell-based.

Chain of Prostaglandin G/H synthase 2 (Homo sapiens) (P35354 whole entry, looked up): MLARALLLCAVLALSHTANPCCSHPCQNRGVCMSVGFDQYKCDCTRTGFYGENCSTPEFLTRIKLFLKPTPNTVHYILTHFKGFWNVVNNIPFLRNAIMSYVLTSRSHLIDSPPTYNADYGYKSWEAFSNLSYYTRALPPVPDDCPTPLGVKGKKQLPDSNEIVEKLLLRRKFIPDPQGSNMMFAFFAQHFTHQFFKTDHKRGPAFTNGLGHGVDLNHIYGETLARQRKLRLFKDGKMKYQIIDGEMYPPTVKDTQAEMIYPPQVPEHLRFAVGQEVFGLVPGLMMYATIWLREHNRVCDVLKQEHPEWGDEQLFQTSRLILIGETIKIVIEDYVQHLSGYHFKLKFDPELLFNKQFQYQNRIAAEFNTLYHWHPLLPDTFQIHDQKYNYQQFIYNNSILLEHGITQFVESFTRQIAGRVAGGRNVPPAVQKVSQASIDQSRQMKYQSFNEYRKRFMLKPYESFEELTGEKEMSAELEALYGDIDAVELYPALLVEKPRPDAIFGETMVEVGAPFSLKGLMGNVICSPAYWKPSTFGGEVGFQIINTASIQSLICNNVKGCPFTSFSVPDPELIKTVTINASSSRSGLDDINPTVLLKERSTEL
Chain of Acetylcholinesterase (Electrophorus electricus) (O42275 24-633 limits assumed): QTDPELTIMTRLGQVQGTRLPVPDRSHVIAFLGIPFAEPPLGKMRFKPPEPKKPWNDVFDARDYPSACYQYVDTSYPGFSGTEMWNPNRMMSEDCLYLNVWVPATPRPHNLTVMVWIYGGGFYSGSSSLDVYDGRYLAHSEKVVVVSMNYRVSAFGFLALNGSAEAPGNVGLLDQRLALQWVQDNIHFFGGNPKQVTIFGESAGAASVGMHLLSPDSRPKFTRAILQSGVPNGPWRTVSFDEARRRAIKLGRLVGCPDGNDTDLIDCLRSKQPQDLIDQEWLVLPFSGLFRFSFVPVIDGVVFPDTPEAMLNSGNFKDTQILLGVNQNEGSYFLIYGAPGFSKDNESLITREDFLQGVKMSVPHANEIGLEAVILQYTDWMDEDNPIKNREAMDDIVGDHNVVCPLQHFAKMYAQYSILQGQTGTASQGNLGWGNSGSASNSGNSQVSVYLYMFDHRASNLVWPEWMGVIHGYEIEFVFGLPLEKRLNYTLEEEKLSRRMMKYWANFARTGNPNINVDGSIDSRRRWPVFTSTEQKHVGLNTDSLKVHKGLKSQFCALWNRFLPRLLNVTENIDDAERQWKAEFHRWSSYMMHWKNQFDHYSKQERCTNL
Chain of Acetylcholinesterase (O42275 whole entry): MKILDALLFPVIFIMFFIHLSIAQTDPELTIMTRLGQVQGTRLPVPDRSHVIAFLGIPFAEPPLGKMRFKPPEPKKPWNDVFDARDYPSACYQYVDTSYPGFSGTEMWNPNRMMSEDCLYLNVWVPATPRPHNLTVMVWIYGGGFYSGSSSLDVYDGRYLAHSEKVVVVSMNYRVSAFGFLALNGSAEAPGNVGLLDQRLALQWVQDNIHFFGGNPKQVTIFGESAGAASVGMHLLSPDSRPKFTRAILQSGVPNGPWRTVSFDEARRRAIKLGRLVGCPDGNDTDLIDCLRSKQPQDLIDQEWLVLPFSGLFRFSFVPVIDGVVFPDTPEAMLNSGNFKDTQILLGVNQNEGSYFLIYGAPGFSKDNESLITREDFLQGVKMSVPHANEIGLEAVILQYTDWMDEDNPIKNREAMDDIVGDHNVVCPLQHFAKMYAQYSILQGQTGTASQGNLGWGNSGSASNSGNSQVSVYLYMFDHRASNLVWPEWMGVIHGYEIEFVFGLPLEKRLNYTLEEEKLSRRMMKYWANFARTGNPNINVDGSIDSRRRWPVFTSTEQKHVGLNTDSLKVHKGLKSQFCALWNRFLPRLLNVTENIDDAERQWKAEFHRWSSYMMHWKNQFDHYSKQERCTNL

Turning to `CC1(C)Oc2ccc(/C(Cn3ccnc3)=N/OC(=O)c3ccc4ccccc4c3)cc2O1`, the Activity result in the data set on BV-2 [1] was “Dde”; in data set [7] it was 25.5%; in the data set on BV-2 [9], “Dde”; in the data set with PC-12 [12] it was 83%; with PC-12 [16] it was 58%; in the data set with BV-2 [17], “Dde”. The viability at 20 µM in data set [2] was found to be 94.1%. For the same compound, the outcome (in data set [3]; with BV-2 [6]; with BV-2 [8]; in [10]; in [13]; in [14]) was Active. In addition, the result (in the data set with BV-2 [15]; in [18]; in [21]; in the data set with BV-2 [22]) was Active. Besides, the Papp in data set [4] came to 10.7 ×10⁻⁶ cm/s. The inhibition – broadly, the drop in the measured response relative to a control, in per cent – stood at 92% in [5] and 67% in [11]. In addition, on Acetylcholinesterase, the Ki – broadly, a measure of affinity in units of concentration, obtained from inhibition or displacement – was 308 nM. In data set [19], the concentration in solution (solubility) came to 316 µg/mL (≈ 738 µM). Besides, the viability at 24 h, up to 10 µM in data set [20] is greater than 95%. Besides, the midpoint of the response in data set [23], the EC50, lay at 570 nM.
As for `CC1(C)Oc2ccc(/C(Cn3ccnc3)=N/OC(=O)Cc3cccc4ccccc34)cc2O1`, the Activity entry was “Dde” in the data set on BV-2 [1], 84% in the data set on PC-12 [12] and 59% with PC-12 [16]. Moreover, in data set [2], the viability at 20 µM was determined as 94.8%. Besides, the Papp in data set [4] came out at 9.2 ×10⁻⁶ cm/s. Moreover, the concentration in solution in data set [19] (solubility) came to 509 µg/mL (≈ 1150 µM). Also, the viability at 24 h, up to 10 µM in data set [20] was greater than 95%. The outcome with BV-2 [22] was Active. The 50% effective concentration (EC50) – broadly, the concentration that produces a half-maximal response – in [23] was 1020 nM.
